Here are results for 3 compounds from patent publication US4870060A, “Derivatives of γ-cylodextrin” (Janssen Pharmaceutica, priority 1988, dated 1989).

SMILES strings stand for the structures. ≈ marks a conversion by molar mass, not a printed value.

Series [1] can be described thus: content of 3-chloro-6-[3,6-dihydro-4-(3-methylphenyl)-1(2H)-pyridinyl]pyridazine in solutions of γ-CD derivatives (procedure of example 4). Format: physicochemical. On the procedure:
(§1) Starting from a 5% stock solution of a particular γ-CD derivative in a phosphate buffer of pH 7.4, a dilution series was obtained with concentrations varying of from 0% to 5% with 0.5% steps. 3 ml of these solutions were pipetted into a closed container containing an appropriate amount of progesteron. After 5 days shaking at 25° C., the thus obtained mixture was filtered over a membrane filter (pore diameter: 0.22 μm), and the content of progesteron was determined with high pressure liquid chromatography (using a column of 25 cm length; 5 mm internal diameter; packed with 5 μm ODS-hypersil (RP-18); eluent: acetonitrile/water; U.V. detection). The results of these concentration measurements for a number of the γ-CD derivatives of the present invention and for unsubstituted γ-CD gathered in the following table.
Following the procedures described in example 4 the content of 3-chloro-6-[3,6-dihydro-4-(3-methylphenyl)-1(2H)-pyridinyl]pyridazine was determined in solutions containing various concentrations of γ-CD derivatives. Said pyridazine compound is described in Published Europ. Pat. Appl. No. 0,156,433 as a useful anti-viral agent.

A short description of series [2]: content of progesteron dissolved in solutions of γ-CD derivatives (phosphate buffer pH 7.4, 5 days shaking at 25° C., HPLC). Format: physicochemical. The conditions noted are these: phosphate buffer pH 7.4, 25° C. On the procedure:
as §1

For series [3] the following is noted: cited from earlier work.
Where [4] appears, read: 1% γ-CD or derivative (weight by volume).
The mark [5] stands for this setting: 2.5% γ-CD or derivative (weight by volume).
Where [6] appears, read: 5% γ-CD or derivative (weight by volume).

Compound `Cc1cccc(C2=CCN(c3ccc(Cl)nn3)CC2)c1` [3-chloro-6-[3,6-dihydro-4-(3-methylphenyl)-1(2H)-pyridinyl]pyridazine] registered a solubility (thermodynamic) at 120 h in series [1] (phosphate buffer ph 7.4, pH 7.4, aqueous buffer, 0% γ-CD derivative (weight by volume)) of 0.4 µg/mL (≈ 1.4 µM).

Turning to `CC(=O)[C@H]1CC[C@H]2[C@@H]3CCC4=CC(=O)CC[C@]4(C)[C@H]3CC[C@]12C` [progesteron], in series [2] (aqueous buffer, 0% γ-CD derivative (weight by volume)), the thermodynamic solubility at 120 h was 5.9 µg/mL (≈ 18.8 µM).

As to `OC[C@H]1O[C@@H]2O[C@H]3[C@H](O)[C@@H](O)[C@@H](O[C@H]4[C@H](O)[C@@H](O)[C@@H](O[C@H]5[C@H](O)[C@@H](O)[C@@H](O[C@H]6[C@H](O)[C@@H](O)[C@@H](O[C@H]7[C@H](O)[C@@H](O)[C@@H](O[C@H]8[C@H](O)[C@@H](O)[C@@H](O[C@H]9[C@H](O)[C@@H](O)[C@@H](O[C@H]1[C@H](O)[C@H]2O)O[C@@H]9CO)O[C@@H]8CO)O[C@@H]7CO)O[C@@H]6CO)O[C@@H]5CO)O[C@@H]4CO)O[C@@H]3CO` [unsubstituted γ-CD, γ-cyclodextrin], the content of progesteron was determined as 425 µg/mL in series [2] (0.5% γ-CD or derivative (weight by volume)); 343 µg/mL in series [2] (setting [4]); 275 µg/mL in series [2] (1.5% γ-CD or derivative (weight by volume)); 203 µg/mL in series [2] (2% γ-CD or derivative (weight by volume)); 163 µg/mL in series [2] (setting [5]); 93 µg/mL in series [2] (3% γ-CD or derivative (weight by volume)). Also, the content of progesteron in series [2] (3.5% γ-CD or derivative (weight by volume)) stood at 60 µg/mL; in series [2] (4% γ-CD or derivative (weight by volume)) it was 54 µg/mL; in series [2] (4.5% γ-CD or derivative (weight by volume)), 46 µg/mL; in series [2] (setting [6]) it was 45 µg/mL. Moreover, the water solubility result in series [3] was “excellent water solubility”. Also, the “content of 3-chloro-6-[3,6-dihydro-4-(3-methylphenyl)-1(2H)-pyridinyl]pyridazine” value in series [1] (setting [4]) was 2.0 µg/mL; in series [1] (setting [5]), 0.8 µg/mL; in series [1] (setting [6]) it was 0.8 µg/mL.
